Measurements reported in patent publication US12378249B2, “Isoquinoline compounds and uses thereof” (Genentech, Inc., priority 2018, dated 2025).
Counter-ions that a name gives are not always drawn.

biological target: HPK1 (Homo sapiens (Human), UniProt Q92918); test: HPK1 Lantha Binding Assay (Lanth); conditions: 2 nM HPK1, 15 nM Tracer222, Morrison Ki fit, read-out: HPK1 Ki (nM), L = Lanth
Procedure: Example B2: HPK1 Lantha Binding Assay (“Lanth”)
Procedure: I. Compound Dilution:
The compounds to be tested were diluted by preparing 12.5 uL/well of 5 mM compound (100×) in columns 2 and 13 and 10 ul/well of DMSO in columns 3-12, 14-23, and wells A1-H1 and I24-P24 of the compound plate using a Bravo liquid handling platform. For the reference compound, the top concentration was 1 mM. To the plate was added 10 ul 2 mM staurosporine in wells J1-P1 and A24-H24. A 11 point 5-fold compound serial dilution was performed using the Bravo liquid handling platform. From the plate were transferred 2.5 ul of the solutions from column 2 and column 13 to the 10 ul of DMSO in columns 3 and 14 & so on. The compound plate was centrifuged at 2500 rpm for 1 min. From the compound plate was transferred 80 nl of the compounds into an assay plate using the Echo liquid handler system. One compound plate makes two assay plates. Each assay plate is sealed and stored in an N2 cabinet.
The following assay concentrations and times were used: 2 nM HPK1, 2 nM Eu-Anti-GST Ab, and 15 nM Tracer222, with 60 min incubation time.
III. HPK Lantha Binding Assay:
For the binding assay, 4 ul 2X HPK1 and Eu-anti-GST antibody were added to each well of the assay plate using a Multidrop reagent dispenser. The solutions were incubated in a 23 C incubator for 1 h. To each well of the assay plate was added 4 ul 2× Tracer-222 using a Multidrop reagent dispenser. The solutions were again incubated in a 23 C incubator for 1 h. The results of the assay were read using an Envision plate reader with the following parameters:TR_FRET, 340ex/615 and 665em; 100 usec Delay; and 200 usec integration.
Compound Ki was analyzed using Morrison ki fit model in XL-fit • a. fit=(1-((((E+x)+(Ki*(1+(S/Kd))))−(((((E+x)+(Ki*(1+(S/Kd))))^2)−((4*E)*x))^0.5))/(2*E))) • res=(y-fit) • b. Parameters: • E=enzyme concentration • S=Tracer222 concentration, Kd=Tracer222 Kd • All measurements reported using the same units (uM)
Exemplary compounds were tested in the binding assays.

Chain of HPK1 (Homo sapiens (Human), UniProt Q92918) (Q92918 1-346): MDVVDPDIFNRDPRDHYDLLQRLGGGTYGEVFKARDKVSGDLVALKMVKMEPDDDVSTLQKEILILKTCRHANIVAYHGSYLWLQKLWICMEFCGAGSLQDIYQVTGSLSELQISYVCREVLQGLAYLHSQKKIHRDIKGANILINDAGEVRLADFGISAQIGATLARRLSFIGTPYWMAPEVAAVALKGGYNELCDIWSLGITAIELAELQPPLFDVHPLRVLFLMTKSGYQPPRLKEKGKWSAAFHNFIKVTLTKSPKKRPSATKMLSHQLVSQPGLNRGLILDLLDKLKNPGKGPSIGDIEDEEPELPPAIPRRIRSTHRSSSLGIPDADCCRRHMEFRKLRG

Row | Ki [nM] | Structure (SMILES)
1 | 68 | CN1CCC(Cn2cc(Nc3cc4cc(-c5c(Cl)cccc5Cl)ccc4cn3)cn2)C1 (racemic) [Compound 102, (+/-)-6-(2,6-dichlorophenyl)-N-(1-((1-methylpyrrolidin-3-yl)methyl)-1H-pyrazol-4-yl)isoquinolin-3-amine]
2 | 9 | Cc1cc(Nc2cc3cc(-c4cnccc4C)ccc3cn2)ncn1 [Compound 107, 6-(4-methylpyridin-3-yl)-N-(6-methylpyrimidin-4-yl)isoquinolin-3-amine]
3 | 57 | Fc1cccc(Cl)c1-c1ccc2cnc(Nc3ccncn3)cc2c1 [Compound 104, 6-(2-chloro-6-fluorophenyl)-N-(pyrimidin-4-yl)isoquinolin-3-amine]
4 | 4.4 | Cc1ccnc(Nc2cc3cc(-c4cnccc4C)ccc3cn2)c1 [Compound 108, N-(4-methylpyridin-2-yl)-6-(4-methylpyridin-3-yl)isoquinolin-3-amine]
5 | 180 | Clc1cccc(Cl)c1-c1ccc2cnc(Nc3cnn(C4CCOC4)c3)cc2c1 (racemic) [Compound 103, (+/-)-6-(2,6-dichlorophenyl)-N-(1-(tetrahydrofuran-3-yl)-1H-pyrazol-4-yl)isoquinolin-3-amine]
6 | 6.6 | Cc1ccncc1-c1ccc2cnc(Nc3cc(C(F)F)ccn3)cc2c1 [Compound 106, N-(4-(difluoromethyl)pyridin-2-yl)-6-(4-methylpyridin-3-yl)isoquinolin-3-amine]
7 | 110 | Clc1cccc(Cl)c1-c1ccc2cnc(Nc3ccncn3)cc2c1 [Compound 101, 6-(2,6-dichlorophenyl)-N-(pyrimidin-4-yl)isoquinolin-3-amine]

biological target: HPK1 (Homo sapiens (Human), UniProt Q92918, S171E/T165E); test: HPK1-FL HTRF Enzymatic Assay (HTRF); format: biochemical; conditions: HPK full length T165E S171E 0.125 nM, ATP 1 mM, Biotin-SLP76 100 nM, read-out: HPK1 Ki (nM), H = HTRF
Sequence (Q92918 whole entry T165E/S171E): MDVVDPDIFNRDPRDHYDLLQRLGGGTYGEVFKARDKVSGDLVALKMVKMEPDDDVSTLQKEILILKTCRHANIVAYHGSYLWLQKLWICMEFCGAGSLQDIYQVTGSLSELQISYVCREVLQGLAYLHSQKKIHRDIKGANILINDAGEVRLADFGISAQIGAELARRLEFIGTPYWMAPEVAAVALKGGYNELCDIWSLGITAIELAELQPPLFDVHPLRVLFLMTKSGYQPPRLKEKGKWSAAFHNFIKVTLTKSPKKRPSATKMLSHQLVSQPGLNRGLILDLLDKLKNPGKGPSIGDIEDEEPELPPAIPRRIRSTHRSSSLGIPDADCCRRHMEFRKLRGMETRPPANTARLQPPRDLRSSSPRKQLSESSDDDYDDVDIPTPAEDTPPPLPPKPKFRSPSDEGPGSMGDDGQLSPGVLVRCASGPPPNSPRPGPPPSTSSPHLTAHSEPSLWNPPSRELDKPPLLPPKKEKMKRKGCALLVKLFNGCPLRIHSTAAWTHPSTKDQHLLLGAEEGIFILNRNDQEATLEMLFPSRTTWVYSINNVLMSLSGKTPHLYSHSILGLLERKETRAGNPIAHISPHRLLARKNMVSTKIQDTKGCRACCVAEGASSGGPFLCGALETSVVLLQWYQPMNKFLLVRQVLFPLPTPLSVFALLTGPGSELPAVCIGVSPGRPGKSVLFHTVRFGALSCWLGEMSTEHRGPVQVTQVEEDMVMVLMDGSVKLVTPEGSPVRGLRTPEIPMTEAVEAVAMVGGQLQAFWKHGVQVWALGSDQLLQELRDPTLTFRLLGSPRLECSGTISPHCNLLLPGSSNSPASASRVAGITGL
Summary of the method: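 Full-length HPK1 double mutant, preincubated 30 min with compound, then phosphorylates Biotin-SLP-76 at 1 mM ATP for 60 min in HEPES pH 7.5/MgCl2/TCEP/Brij-35 buffer. Phospho-product detected by TR-FRET (Eu-anti-pSLP76, SA-XL665) after 60 min; 665/620 ratio gives % activity, from which Ki is determined.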

Row | Ki [nM] | Structure (SMILES)
8 | 0.076 | Cc1c(N)cncc1-c1cc2cc(Nc3cc4n(n3)Cc3nncn3CC4)ncc2cc1F [Compound 139, N-(6-(5-amino-4-methylpyridin-3-yl)-7-fluoroisoquinolin-3-yl)-5,6-dihydro-11H-pyrazolo[1,5-d][1,2,4]triazolo[4,3-a][1,4]diazepin-8-amine]
9 | 1.9 | Cc1c(-c2cc3cc(Nc4cc5n(n4)CC(=O)N(C)CC5)ncc3cc2F)cnc2c(=O)n(C)[nH]c12 [Compound 209, 2-((6-(2,7-dimethyl-3-oxo-2,3-dihydro-1H-pyrazolo[4,3-b]pyridin-6-yl)-7-fluoroisoquinolin-3-yl)amino)-6-methyl-5,6-dihydro-4H-pyrazolo[1,5-d][1,4]diazepin-7(8H)-one]
10 | 3.7 | Cc1ncc(-c2cc3cc(Nc4cc5n(n4)CC(=O)N(C(C)C)CC5)ncc3c(O)c2F)c(C)c1N [Compound 133, 2-((6-(5-amino-4,6-dimethylpyridin-3-yl)-7-fluoro-8-hydroxyisoquinolin-3-yl)amino)-6-isopropyl-5,6-dihydro-4H-pyrazolo[1,5-d][1,4]diazepin-7(8H)-one]
11 | 0.075 | Cc1c(N)cncc1-c1cc2cc(Nc3cc4n(n3)CC(=O)N(C(C)C)CC4O)ncc2cc1F (single isomer, unassigned) [Compound 153b]
12 | 0.062 | Cc1c(NCC(F)(F)F)cncc1-c1cc2cc(Nc3cc4n(n3)CC(=O)NCC4)ncc2cc1F [Compound 239, 2-((7-fluoro-6-(4-methyl-5-((2,2,2-trifluoroethyl)amino)pyridin-3-yl)isoquinolin-3-yl)amino)-5,6-dihydro-4H-pyrazolo[1,5-d][1,4]diazepin-7(8H)-one]
13 | 11 | Cc1c(-c2cc3cc(Nc4cc5n(n4)CC(=O)N(C)CC5)ncc3cc2F)cnc2c1CNCCO2 [Compound 232, 2-((7-fluoro-6-(6-methyl-2,3,4,5-tetrahydropyrido[3,2-f][1,4]oxazepin-7-yl)isoquinolin-3-yl)amino)-6-methyl-5,6-dihydro-4H-pyrazolo[1,5-d][1,4]diazepin-7(8H)-one]
14 | 0.08 | Cc1c(N)cncc1-c1cc2cc(Nc3cc4n(n3)CC(=O)N(C(C)C)CC4)ncc2c(C)c1F [Compound 121, 2-((6-(5-amino-4-methylpyridin-3-yl)-7-fluoro-8-methylisoquinolin-3-yl)amino)-6-isopropyl-5,6-dihydro-4H-pyrazolo[1,5-d][1,4]diazepin-7(8H)-one]
15 | 0.013 | COCCN1CCc2cc(Nc3cc4cc(-c5cnc6c(c5C)NCCO6)c(F)cc4cn3)nn2CC1=O [Compound 155, 2-((7-fluoro-6-(8-methyl-2,3-dihydro-1H-pyrido[2,3-b][1,4]oxazin-7-yl)isoquinolin-3-yl)amino)-6-(2-methoxyethyl)-5,6-dihydro-4H-pyrazolo[1,5-d][1,4]diazepin-7(8H)-one]
16 | 0.013 | Cc1c(-c2cc3cc(Nc4cc5n(n4)CC(=O)N(C)CC5)ncc3c(F)c2F)cnc2c1NCCO2 [Compound 138, 2-((7,8-difluoro-6-(8-methyl-2,3-dihydro-1H-pyrido[2,3-b][1,4]oxazin-7-yl)isoquinolin-3-yl)amino)-6-methyl-5,6-dihydro-4H-pyrazolo[1,5-d][1,4]diazepin-7(8H)-one]
17 | 0.12 | Cc1c(N)cncc1-c1cc2cc(Nc3cc4n(n3)CC3=NOC(C)(C)N3CC4)ncc2cc1F [Compound 166, N-(6-(5-amino-4-methylpyridin-3-yl)-7-fluoroisoquinolin-3-yl)-3,3-dimethyl-5,6-dihydro-3H,11H-[1,2,4]oxadiazolo[4,3-a]pyrazolo[1,5-d][1,4]diazepin-8-amine]
18 | 0.11 | Cc1c(-c2cc3cc(Nc4cc5n(n4)CC(=O)NCC5)ncc3cc2F)cnc2c1NCCC2O (racemic) [Compound 201, (+/-)-2-((7-fluoro-6-(8-hydroxy-4-methyl-5,6,7,8-tetrahydro-1,5-naphthyridin-3-yl)isoquinolin-3-yl)amino)-5,6-dihydro-4H-pyrazolo[1,5-d][1,4]diazepin-7(8H)-one formate salt]
19 | 0.332 | Cc1c(-c2cc(F)c3cnc(Nc4cc5n(n4)CC(=O)N(C)CC54CC4)cc3c2)cnc2c1NCC[C@@H]2O (single isomer, unassigned) [Compound 237a]
20 | 7 | CNCc1ccc(F)c(-c2ccc3cnc(Nc4cc5n(n4)CC(=O)N(C)CC5)cc3c2)c1C [Compound 219, 2-((6-(6-fluoro-2-methyl-3-((methylamino)methyl)phenyl)isoquinolin-3-yl)amino)-6-methyl-5,6-dihydro-4H-pyrazolo[1,5-d][1,4]diazepin-7(8H)-one]

test system: primary human pan T cells; test: Human T-cell IL2 Induction Assay; format: cell-based; conditions: assayed concentration 0.31 μM; anti-CD3/anti-CD28 stimulated, 4 hours
Procedure: Example B3: Human T-cell IL2 Induction Assay
Anti-CD3 and anti-CD28 activates TCR signaling in primary human pan T cells leading to IL-2 promoter induction. Secreted IL-2 in cell culture supernatant is detected by electrochemiluminescence using a capture antibody against IL-2 and an anti-IL-2 antibody labeled with SULFO-tag.
See www.mesoscale.com for additional electrochemiluminescence technology information.
Incubate primary human pan T cells with varying concentrations of test compounds for 30 minutes in a humidified incubator at 37° C. and 5% CO2. Transfer cells to a plate pre-coated with a fixed concentration of anti-human CD3 (determined separately for each donor lot) and add soluble anti-human CD28 (final concentration=1 μg/ml). Stimulate cells in a humidified incubator at 37° C. and 5% CO2 for 4 hours. Transfer 25 μl of supernatant to a MSD single spot plate pre-coated with an anti-human IL-2 antibody. Incubate MSD plate overnight at 4° C. with gentle shaking. Wash MSD plate 4× with wash buffer. Add SULFO-tagged detection antibody at a 1:50 dilution and incubate at room temperature shaking for 2 hours. Wash MSD plate 4× with wash buffer and add 150 μl 2×MSD read buffer. Read on an MSD instrument. Normalize data to stimulated/untreated controls to calculate % activity at each concentration of compound.
• Frozen Primary Human Pan-T Cells (StemCell Technologies #70024) • anti-human CD3 (OKT3 clone) (eBioscience #16-0037-81) • anti-human CD28 (CD28.2 clone) (BD #555725) • 96-well Human IL-2 tissue culture kit (MSD #K151AHB-4) Instrumentation: • Biomek FX for liquid handling (Beckman Coulter) • MSD SECTOR S 600 (Meso Scale Discovery)
Exemplary compounds of Formula (I) were tested in the human T-cell IL-2 induction assays. The % increase measured for IL-2 in cells treated by the test compounds relative to untreated cells are provided in Table B2 for certain compounds.

Row | Structure (SMILES) | % IL-2 increase relative to untreated cells [%]
21 | Cc1c(N)cncc1-c1cc2cc(Nc3cc4n(n3)Cc3nncn3CC4)ncc2cc1F [Compound 139, N-(6-(5-amino-4-methylpyridin-3-yl)-7-fluoroisoquinolin-3-yl)-5,6-dihydro-11H-pyrazolo[1,5-d][1,2,4]triazolo[4,3-a][1,4]diazepin-8-amine] | 154
22 | Cc1c(-c2cc3cc(Nc4cc5n(n4)CC(=O)N(C(C)C)C[C@@H]5O)ncc3cc2F)cnc2c1NCCO2 [Compound 141b, (S)-2-((7-fluoro-6-(8-methyl-2,3-dihydro-1H-pyrido[2,3-b][1,4]oxazin-7-yl)isoquinolin-3-yl)amino)-4-hydroxy-6-isopropyl-5,6-dihydro-4H-pyrazolo[1,5-d][1,4]diazepin-7(8H)-one] | 350
